Experimental data as given in the NIST ThermoML archive (doi:10.1021/je700308j).
Several values for one entry are separate records, joined by “and”; a condition that tells them apart may be missing. Equal values may be shown once. ± gives the expanded uncertainty stated by the source.

Assays:
[1] = excess molar enthalpy (molar enthalpy of mixing); xn = mol fraction of the nth substance listed; conditions: 101 kPa, Liquid, Flow calorimetry
[2] = heat capacity at constant pressure per volume; xn = mol fraction of the nth substance listed; conditions: 298.15 K, 101 kPa, Liquid, Flow calorimetry
[3] = xn = mol fraction of the nth substance listed; conditions: 298.15 K, 101 kPa, Liquid

C1CCCC1 [cyclopentane] + CCCCCCCCCCO
excess molar enthalpy, [1]
Conditions	x1 = 0.336	x1 = 0.465	x1 = 0.575	x1 = 0.67	x1 = 0.752	x1 = 0.89	x1 = 0.975
298.15 K	0.0786 kcal/mol and 0.0778 kcal/mol	0.0965 ± 0.00139 kcal/mol	0.104 ± 0.00146 kcal/mol	0.105 ± 0.00146 kcal/mol	0.101 ± 0.00136 kcal/mol	0.0851 ± 0.00117 kcal/mol	–
298.65 K	–	–	–	–	–	–	0.0495 ± 0.000717 kcal/mol

C1CCCC1 [cyclopentane] + CCCCCCCCCO
[1], 298.15 K
Conditions	excess molar enthalpy [kcal/mol]
x1 = 0.171	0.0418 ± 0.000717
x1 = 0.316	0.0712 ± 0.00115
x1 = 0.442	0.091 ± 0.00134
x1 = 0.552	0.101 ± 0.00139
x1 = 0.649	0.104 ± 0.00139
x1 = 0.735	0.102 ± 0.00139
x1 = 0.812	0.0962 ± 0.00155
x1 = 0.881	0.0862 ± 0.0021
x1 = 0.943	0.07 ± 0.00335
x1 = 0.972	0.0548 ± 0.00526

C1CCCC1 [cyclopentane] + CCCCCCCCO
[1], 298.15 K
Conditions	excess molar enthalpy [kcal/mol]
x1 = 0.157	0.0349 ± 0.000717
x1 = 0.295	0.0632 ± 0.00105
x1 = 0.418	0.0844 ± 0.00129
x1 = 0.528	0.0971 ± 0.00139
x1 = 0.626	0.104 ± 0.00139
x1 = 0.715	0.105 ± 0.00141
x1 = 0.796	0.0987 ± 0.00153
x1 = 0.87	0.0889 ± 0.00198
x1 = 0.938	0.0725 ± 0.00311
x1 = 0.97	0.0576 ± 0.00454

C1CCCC1 [cyclopentane] + CCCCCCCO
[1], 298.15 K
Conditions	excess molar enthalpy
x1 = 0.143	0.0296 ± 0.000478 kcal/mol
x1 = 0.273	0.0554 ± 0.000956 kcal/mol
x1 = 0.392	0.0786 ± 0.00127 kcal/mol
x1 = 0.5	0.0937 ± 0.00139 kcal/mol
x1 = 0.6	0.104 ± 0.00143 kcal/mol
x1 = 0.692	0.106 ± 0.00141 kcal/mol
x1 = 0.778	0.102 ± 0.00151 kcal/mol
x1 = 0.857	0.0921 kcal/mol and 0.0923 kcal/mol
x1 = 0.931	0.075 ± 0.00287 kcal/mol
x1 = 0.966	0.0603 ± 0.00406 kcal/mol

C1CCCC1 [cyclopentane] + CCCCCCO
[1], 298.15 K
Conditions	excess molar enthalpy
x1 = 0.128	0.0277 ± 0.000478 kcal/mol
x1 = 0.249	0.0484 ± 0.000837 kcal/mol
x1 = 0.362	0.0707 ± 0.0012 kcal/mol
x1 = 0.469	0.0894 kcal/mol and 0.0897 kcal/mol
x1 = 0.57	0.102 ± 0.00146 kcal/mol
x1 = 0.665	0.108 ± 0.00143 kcal/mol
x1 = 0.756	0.105 ± 0.00148 kcal/mol
x1 = 0.841	0.0954 ± 0.00186 kcal/mol
x1 = 0.923	0.0778 ± 0.00263 kcal/mol
x1 = 0.962	0.0619 ± 0.00406 kcal/mol

C1CCCC1 [cyclopentane] + CCCCCO
[1], 298.15 K
Conditions	excess molar enthalpy [kcal/mol]
x1 = 0.113	0.0229 ± 0.000478
x1 = 0.223	0.0451 ± 0.000813
x1 = 0.33	0.0674 ± 0.00115
x1 = 0.434	0.0882 ± 0.00143
x1 = 0.535	0.105 ± 0.00155
x1 = 0.633	0.115 ± 0.00155
x1 = 0.728	0.115 ± 0.00155
x1 = 0.821	0.105 ± 0.00194
x1 = 0.912	0.0849 ± 0.00263
x1 = 0.956	0.0674 ± 0.00382

C1CCCC1 [cyclopentane] + CCCCO
[1], 298.15 K
Conditions	excess molar enthalpy
x1 = 0.098	0.022 ± 0.000478 kcal/mol
x1 = 0.196	0.0427 ± 0.000765 kcal/mol
x1 = 0.294	0.0637 ± 0.0011 kcal/mol
x1 = 0.393	0.0857 kcal/mol and 0.0846 kcal/mol
x1 = 0.493	0.104 ± 0.0016 kcal/mol
x1 = 0.593	0.118 ± 0.00165 kcal/mol
x1 = 0.694	0.124 ± 0.00163 kcal/mol
x1 = 0.796	0.116 ± 0.00194 kcal/mol
x1 = 0.897	0.0941 ± 0.00263 kcal/mol
x1 = 0.949	0.0739 ± 0.00382 kcal/mol

CCCCCCCCCCO [decan-1-ol] + C1CCOC1
Conditions	heat capacity, [2] [J/K/m3]	mass density, [3] [kg/m3]
x2 = 0.0904	1904000 ± 4000	828.17 ± 0.4
x2 = 0.2067	1869000 ± 4000	831.12 ± 0.37
x2 = 0.3967	1810000 ± 4000	837.35 ± 0.32
x2 = 0.5985	1734000 ± 4000	846.59 ± 0.28
x2 = 0.7992	1635000 ± 3000	860.14 ± 0.24
x2 = 0.8981	1573000 ± 3000	869.46 ± 0.22

CCCCCCCO [heptan-1-ol] + C1CCOC1
Conditions	heat capacity, [2] [J/K/m3]	mass density, [3] [kg/m3]
x2 = 0.1103	1888000 ± 4000	822.54 ± 0.82
x2 = 0.2085	1859000 ± 4000	826.55 ± 0.71
x2 = 0.3123	1827000 ± 4000	831.18 ± 0.6
x2 = 0.4046	1797000 ± 4000	835.76 ± 0.52
x2 = 0.496	1765000 ± 4000	840.88 ± 0.45
x2 = 0.5973	1725000 ± 3000	847.05 ± 0.37
x2 = 0.6977	1680000 ± 3000	854.06 ± 0.32
x2 = 0.8031	1627000 ± 3000	862.49 ± 0.27
x2 = 0.9021	1572000 ± 3000	871.51 ± 0.23

CCCCCCO [hexan-1-ol] + C1CCOC1
Conditions	heat capacity, [2] [J/K/m3]	mass density, [3] [kg/m3]
x2 = 0.1191	1886000 ± 4000	820.48 ± 0.4
x2 = 0.1994	1862000 ± 4000	824.38 ± 0.38
x2 = 0.3032	1829000 ± 4000	829.77 ± 0.35
x2 = 0.3931	1800000 ± 4000	834.74 ± 0.32
x2 = 0.505	1759000 ± 4000	841.56 ± 0.3
x2 = 0.6028	1719000 ± 3000	848.03 ± 0.28
x2 = 0.6944	1678000 ± 3000	854.68 ± 0.26
x2 = 0.7937	1628000 ± 3000	862.57 ± 0.24
x2 = 0.8961	1574000 ± 3000	871.63 ± 0.22

CCCCCCCCCO [nonan-1-ol] + C1CCOC1
[3]
Conditions	mass density [kg/m3]
x2 = 0.1048	827.19 ± 0.83
x2 = 0.1889	829.58 ± 0.73
x2 = 0.3131	833.79 ± 0.6
x2 = 0.4067	837.47 ± 0.52
x2 = 0.504	841.9 ± 0.44
x2 = 0.6004	847.05 ± 0.37
x2 = 0.7009	853.33 ± 0.31
x2 = 0.7999	860.89 ± 0.27
x2 = 0.9015	870.34 ± 0.23
